For data set [1], the target named is T1, butirrylcholinesterase from equine serum BuChE (Equus caballus, UniProt P81908).
T1 construct: purchased Sigma-Aldrich; host or cells: equine serum
The experiment in a line: Cholinesterase activity by the Elmann method, kinetic parameters and Ki on BuChE. The format is biochemical. The conditions noted are these: for inhibition type on BuChE: decrease of Vmax without affecting Km.

The next data set has as its system PPARα/γ. The following applies: ref D'Aniello et al. [2019]; cited from earlier work.
The conditions of data set [2]: especially in a tween-based vehicle; ref Anderson et al. [2019]; cited from earlier work.
A further data set concerns the target T2, mouse BACE-1 (Mus musculus, UniProt P56818).
T2 construct: purchased Life Technology
The experiment in a line: BACE-1 activity, fluorimetric method. The format is biochemical. The following applies: for IC50: mouse BACE-1, pH 4.5, semilogarithmic plot.

Data set [3] concerns the target T3, Acetylcholinesterase from Electrophorus electricus AChE (Electrophorus electricus, UniProt O42275).
T3 construct: purchased Sigma-Aldrich
Nature of the data set: Cholinesterase activity by the Elmann method, kinetic parameters and Ki on AChE. The format is biochemical. The conditions noted are these: for inhibition type on AChE: increase in Km without affecting Vmax.

For data set [4], the system named is TRPM7. The following applies: ref Suzuki et al. [2023]; cited from earlier work.
Data set [5] deals with TRPM7. The experiment in a line: Trpm7 mRNA expression in hippocampus by qPCR. The format is in vivo, mouse. The conditions noted are these: treatment day 3 to 10 postinduction; upregulated by sAβ. (In general: Real-time PCR tracks product formation cycle by cycle.)
Data set [6] has as its target T4, Human β-amyloid peptide (1–40) (Homo sapiens, UniProt P05067).
T4 construct: Human β‐amyloid peptide (1–40, cat. ab120479); purchased Abcam ab120479
Nature of the data set: Aβ 1–40 self-aggregation inhibition assay (thioflavine T). The format is biochemical. The conditions noted are these: 96 μM peptide, 37°C, 24 h.

The subject of data set [7] is LEC-DG pathway (hippocampus) of sAβ-injected mice. The experiment in a line: In vivo LTP recording in the LEC-DG pathway of sAβ-injected mice. More on the design: species or system CD1 male mice. The conditions noted are these: 10 mg/kg i.p. repeated; for fEPSP slope after TBS: 30–60 min after TBS, sAβ/veh 110.92 ± 0.86; for fEPSP slope after TBS / fEPSP amplitude 30–60 min after TBS: relative to baseline; for fEPSP amplitude 30–60 min after TBS: sAβ/veh 110.5 ± 1.73.

Another data set has as its target T5, GPR109A (HCA2) (Homo sapiens, UniProt Q8TDS4).
T5 construct: Tango fusion module; host or cells: HTLA-HEK293 cells stably expressing β-arrestin2-TEV and tTA-driven luciferase
The experiment in a line: β-arrestin recruitment assay on GPR109A (HCA2-Tango, HTLA-HEK293 cells). The format is cell-based. The following applies: HTLA-HEK293 cells expressing HCA2; different doses; 20 h; vs vehicle. (Arrestin recruitment assays detect the binding of arrestin to an activated receptor.)

In data set [8] the test system is sAβ-injected mice. The experiment in a line: Tail suspension test in sAβ-induced AD mouse model. The format is in vivo, CD1 male mice. The conditions noted are these: 10 mg/kg i.p. repeated, days 3 to 10 after sAβ; sAβ/veh 74.250 ± 7.465; mean ± SEM.
The subject of data set [9] is sAβ-injected mice. The experiment in a line: Novel object recognition test in sAβ-induced AD mouse model. The format is in vivo, CD1 male mice. The conditions noted are these: 10 mg/kg i.p. repeated, days 3 to 10 after sAβ; test at 1 h; sAβ/veh −0.115 ± 0.030; mean ± SEM.
Data set [10] deals with T6, cannabinoid CB2 receptor (CNR2-Tango) (Homo sapiens, UniProt P34972).
T6 construct: Tango fusion module; expressed in transfected cells; host or cells: HTLA-HEK293 cells
T6 sequence (P34972 whole entry, the tested form may be a part): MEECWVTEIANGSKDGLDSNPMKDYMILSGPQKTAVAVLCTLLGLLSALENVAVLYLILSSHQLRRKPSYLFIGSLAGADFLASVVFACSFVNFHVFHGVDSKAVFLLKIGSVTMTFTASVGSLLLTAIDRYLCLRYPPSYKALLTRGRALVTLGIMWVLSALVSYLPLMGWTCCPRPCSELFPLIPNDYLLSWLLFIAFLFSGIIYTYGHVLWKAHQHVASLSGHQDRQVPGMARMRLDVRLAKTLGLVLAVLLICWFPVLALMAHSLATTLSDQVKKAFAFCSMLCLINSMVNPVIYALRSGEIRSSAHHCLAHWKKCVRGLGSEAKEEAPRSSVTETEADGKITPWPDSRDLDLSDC
Nature of the data set: β-arrestin recruitment assay, positive control CNR2-Tango. The format is cell-based.

[11] abbreviates: BuChE, Exp. 1, inhibitor 10 µM, Lineweaver-Burk equation, from decrease of Vmax, mean Ki in μM, read-out: Ki LB.
Setting [12] is: BuChE, Exp. 1, inhibitor 10 µM, Lineweaver-Burk equation, no inhibitor 0.295.
The mark [13] stands for this setting: BuChE, Exp. 1, inhibitor 10 µM, Michaelis-Menten interpolation, from decrease of Vmax, mean Ki in μM, read-out: Ki MM.
Setting [14] is: BuChE, Exp. 1, inhibitor 10 µM, Michaelis-Menten interpolation, no inhibitor 0.299.
[15] abbreviates: BuChE, Exp. 2, inhibitor 2.66 µM, Lineweaver-Burk equation, from decrease of Vmax, mean Ki in μM, read-out: Ki LB.
[16] abbreviates: BuChE, Exp. 2, inhibitor 2.66 µM, Lineweaver-Burk equation, no inhibitor 0.220.
[17] abbreviates: BuChE, Exp. 2, inhibitor 2.66 µM, Michaelis-Menten interpolation, from decrease of Vmax, mean Ki in μM, read-out: Ki MM.
The mark [18] stands for this setting: mean over experiments, n = 4, noncompetitive inhibition, read-out: calculated Ki, BuChE.
Where [19] appears, read: AChE, inhibitor 1.25 µM, Lineweaver-Burk equation, from increase of Km, mean Ki in μM, read-out: Ki LB.
The mark [20] stands for this setting: AChE, inhibitor 1.25 µM, Michaelis-Menten interpolation, from increase of Km, mean Ki in μM, read-out: Ki MM.
[21] abbreviates: AChE, inhibitor 2.50 µM, Lineweaver-Burk equation, from increase of Km, mean Ki in μM, read-out: Ki LB.
Setting [22] is: AChE, inhibitor 3.00 µM, Lineweaver-Burk equation, from increase of Km, mean Ki in μM, read-out: Ki LB.
The mark [23] stands for this setting: AChE, inhibitor 3.00 µM, Michaelis-Menten interpolation, from increase of Km, mean Ki in μM, read-out: Ki MM.
Where [24] appears, read: mean over experiments, n = 6 CBDA, n = 7 CBGA, competitive inhibition, read-out: calculated Ki, AChE.

Read-outs that look alike come from different tables or passages of the source.

T3 sequence (O42275 24-633): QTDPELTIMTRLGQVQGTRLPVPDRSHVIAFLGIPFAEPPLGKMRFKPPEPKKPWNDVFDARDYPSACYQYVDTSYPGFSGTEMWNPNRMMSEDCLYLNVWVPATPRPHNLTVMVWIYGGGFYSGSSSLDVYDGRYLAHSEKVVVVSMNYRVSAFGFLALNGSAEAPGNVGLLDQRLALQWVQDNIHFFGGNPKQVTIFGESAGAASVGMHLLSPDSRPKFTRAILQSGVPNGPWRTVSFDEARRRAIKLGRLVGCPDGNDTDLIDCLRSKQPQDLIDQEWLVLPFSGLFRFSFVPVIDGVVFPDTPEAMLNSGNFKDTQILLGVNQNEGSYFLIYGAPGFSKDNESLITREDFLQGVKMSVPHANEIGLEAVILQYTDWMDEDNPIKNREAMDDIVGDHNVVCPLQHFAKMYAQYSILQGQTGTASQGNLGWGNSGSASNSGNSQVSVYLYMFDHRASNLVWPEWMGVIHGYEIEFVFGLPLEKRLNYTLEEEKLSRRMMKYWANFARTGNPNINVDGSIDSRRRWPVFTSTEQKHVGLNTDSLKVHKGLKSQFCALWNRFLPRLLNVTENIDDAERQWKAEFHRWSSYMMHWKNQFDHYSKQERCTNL
T1 sequence (P81908 whole entry): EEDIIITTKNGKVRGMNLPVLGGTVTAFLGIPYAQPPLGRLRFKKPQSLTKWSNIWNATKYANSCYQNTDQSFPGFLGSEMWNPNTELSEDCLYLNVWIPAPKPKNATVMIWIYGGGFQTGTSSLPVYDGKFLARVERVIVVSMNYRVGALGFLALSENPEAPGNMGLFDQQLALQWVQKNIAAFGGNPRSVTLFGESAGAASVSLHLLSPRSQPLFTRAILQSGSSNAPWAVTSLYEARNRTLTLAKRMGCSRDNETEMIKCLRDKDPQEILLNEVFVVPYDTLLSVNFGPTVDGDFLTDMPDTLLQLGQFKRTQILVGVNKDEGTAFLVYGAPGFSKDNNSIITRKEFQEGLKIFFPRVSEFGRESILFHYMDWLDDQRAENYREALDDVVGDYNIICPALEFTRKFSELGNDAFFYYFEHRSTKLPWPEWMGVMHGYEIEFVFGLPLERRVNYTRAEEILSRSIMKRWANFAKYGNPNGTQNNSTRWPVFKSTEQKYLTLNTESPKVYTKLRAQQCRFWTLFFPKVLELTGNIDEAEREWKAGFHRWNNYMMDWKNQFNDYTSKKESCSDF
T2 sequence (P56818 46-501): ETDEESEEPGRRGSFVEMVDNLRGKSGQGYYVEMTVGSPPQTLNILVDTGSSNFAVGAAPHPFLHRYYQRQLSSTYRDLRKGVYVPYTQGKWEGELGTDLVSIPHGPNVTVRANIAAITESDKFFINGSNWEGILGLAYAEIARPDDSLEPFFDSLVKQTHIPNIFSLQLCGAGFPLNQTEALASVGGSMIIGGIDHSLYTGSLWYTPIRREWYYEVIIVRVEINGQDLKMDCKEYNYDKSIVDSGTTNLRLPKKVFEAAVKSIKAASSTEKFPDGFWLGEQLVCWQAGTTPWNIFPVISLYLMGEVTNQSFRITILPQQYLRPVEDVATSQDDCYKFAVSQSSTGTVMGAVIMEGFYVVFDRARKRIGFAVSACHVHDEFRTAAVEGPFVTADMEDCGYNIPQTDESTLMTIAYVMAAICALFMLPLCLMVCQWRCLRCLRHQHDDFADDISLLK
T5 sequence (Q8TDS4 whole entry, the tested form may be a part): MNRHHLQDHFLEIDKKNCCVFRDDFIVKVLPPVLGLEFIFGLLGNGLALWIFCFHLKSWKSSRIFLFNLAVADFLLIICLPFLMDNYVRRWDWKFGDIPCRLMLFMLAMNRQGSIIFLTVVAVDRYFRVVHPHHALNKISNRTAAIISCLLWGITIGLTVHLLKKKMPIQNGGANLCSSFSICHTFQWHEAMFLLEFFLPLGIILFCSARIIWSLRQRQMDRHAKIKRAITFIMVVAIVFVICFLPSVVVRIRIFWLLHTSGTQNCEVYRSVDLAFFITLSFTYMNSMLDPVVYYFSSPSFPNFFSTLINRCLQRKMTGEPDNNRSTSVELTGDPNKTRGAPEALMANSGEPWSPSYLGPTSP
T4 sequence (P05067 672-711 limits assumed): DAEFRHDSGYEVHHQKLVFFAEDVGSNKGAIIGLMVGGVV

Turning to `C=C(C)[C@@H]1CCC(C)=C[C@H]1c1c(O)cc(CCCCC)c(C(=O)O)c1O` [CBDA, cannabidiolic acid], the Ki (as a rule, the dissociation constant of the complex between target and ligand, obtained from inhibition or displacement) was 6.1 µM in data set [1] (setting [11]); 6.6 µM in data set [1] (setting [13]); 7.5 µM in data set [1] (setting [15]); 6.4 µM in data set [1] (setting [17]); 6.7 ± 0.6 µM in data set [1] (setting [18]); 55 µM in data set [3] (setting [19]). In addition, the Ki in data set [3] (setting [20]) came to 32.1 µM; in data set [3] (AChE, inhibitor 1.75 µM, Lineweaver-Burk equation, from increase of Km, mean Ki in μM, read-out: Ki LB), 4.2 µM; in [3] (AChE, inhibitor 1.75 µM, Michaelis-Menten interpolation, from increase of Km, mean Ki in μM, read-out: Ki MM), 13.9 µM; in [3] (setting [21]), 10.5 µM; in data set [3] (setting [22]) it was 10.6 µM; in data set [3] (setting [23]) it was 3.4 µM. Also, the Ki in data set [3] (setting [24]) was 7.9 ± 4.3 µM. The “Vmax LB” value is recorded as 0.112 in [1] (setting [12]) and 0.162 in data set [1] (setting [16]). Further, the “Vmax MM” value in data set [1] (setting [14]) was 0.119. For the same compound, the “inhibition type on BuChE” value in data set [1] was “noncompetitive inhibitors”. Further, the “activity on PPARα/γ” value in the data set on PPARα/γ is reported as “dual PPARα/γ agonists”. In data set [2], the “blood–brain barrier crossing” value is “can cross the blood–brain barrier”. In addition, the 50% inhibitory concentration (IC50) (commonly the concentration that inhibits the measured activity by half) worked out at 6.1 ± 0.2 µM against mouse BACE-1 and 57.5 ± 0.8 µM in data set [6]. In addition, the “inhibition type on AChE” value in data set [3] was “competitive inhibitors”. Besides, the “activity on TRPM7” value in the data set on TRPM7 [4] was “inhibitors of TRPM7”. Besides, the “Trpm7 expression in hippocampus” value in the data set with TRPM7 [5] was “reverted to the basal level”. Moreover, in data set [7], the “fEPSP slope after TBS” value stood at 157.46 ± 14.5%. The “fEPSP amplitude 0–15 min (baseline)” value in [7] is recorded as 99.97 ± 0.024%. Moreover, in data set [7], the “fEPSP slope 0–15 min (baseline)” value turned out to be 99.95 ± 0.27%. The “fEPSP amplitude 30–60 min after TBS” value in data set [7] is 132.08 ± 2.83%. Also, the “β-arrestin recruitment / activation of GPR109A” value on GPR109A (HCA2) was “no recruitment of β‐arrestin and no direct receptor activation”. For the same compound, the “immobility in tail suspension test” value with sAβ-injected mice [8] was found to be 64.000 ± 12.523 s.
As to `CCCCCc1cc(O)c(C/C=C(\C)CCC=C(C)C)c(O)c1C(=O)O` [CBGA, cannabigerolic acid], the inhibition constant Ki in data set [1] (setting [11]) was 39.2 µM; in data set [1] (setting [13]), 26 µM; in [1] (setting [15]), 14.1 µM; in data set [1] (setting [17]), 14 µM; in data set [1] (setting [18]), 23.3 ± 12 µM; in data set [3] (setting [19]), 13.5 µM. The inhibitory constant (Ki) in data set [3] (setting [20]) worked out at 9.1 µM; in [3] (setting [21]), 9.6 µM; in [3] (AChE, inhibitor 2.50 µM, Michaelis-Menten interpolation, from increase of Km, mean Ki in μM, read-out: Ki MM), 12.2 µM; in data set [3] (setting [22]), 6.5 µM; in data set [3] (setting [23]) it was 8.1 µM; in [3] (AChE, inhibitor 3.75 µM, Lineweaver-Burk equation, from increase of Km, mean Ki in μM, read-out: Ki LB) it was 14.4 µM. For the same compound, the inhibition constant Ki in data set [3] (AChE, inhibitor 3.75 µM, Michaelis-Menten interpolation, from increase of Km, mean Ki in μM, read-out: Ki MM) was 26.7 µM; in data set [3] (setting [24]), 10.5 ± 2.9 µM. The “Vmax LB” value in data set [1] (setting [12]) is reported as 0.235; in [1] (setting [16]), 0.185. The “Vmax MM” value in data set [1] (setting [14]) amounted to 0.216; in data set [1] (BuChE, Exp. 2, inhibitor 2.66 µM, Michaelis-Menten interpolation, no inhibitor 0.249), 0.209. In [1], the “inhibition type on BuChE” value is given as “noncompetitive inhibitors”. Also, in the data set on PPARα/γ, the “activity on PPARα/γ” value was “dual PPARα/γ agonists”. Also, the IC50 turned out to be 1.4 ± 0.1 µM on mouse BACE-1 and 47.7 ± 2.1 µM in data set [6]. Moreover, the “efficiency in inhibiting mBACE-1, CBGA relative to CBDA” value at mouse BACE-1 (ratio of IC50 values) is given as “roughly 4 times”. Further, the “inhibition type on AChE” value in data set [3] is listed as “competitive inhibitors”. For the same compound, the “activity on TRPM7” value with TRPM7 [4] is on record as “inhibitors of TRPM7”. Also, in the data set on TRPM7 [5], the “Trpm7 expression in hippocampus” value is “reverted to the basal level”. In addition, the “fEPSP slope after TBS” value in [7] was determined as 203.21 ± 22.55%. The “fEPSP amplitude 0–15 min (baseline)” value in data set [7] is given as 100.8 ± 0.61%. Besides, the “fEPSP slope 0–15 min (baseline)” value in data set [7] is reported as 100.94 ± 1.15%. Also, the “fEPSP amplitude 30–60 min after TBS” value in data set [7] is 174.34 ± 6.97%. For the same compound, the “β-arrestin recruitment / activation of GPR109A” value at GPR109A (HCA2) was “no recruitment of β‐arrestin and no direct receptor activation”. The “NOR index (recognition index)” value with sAβ-injected mice [9] amounted to 0.183 ± 0.052. The “immobility in tail suspension test” value in the data set on sAβ-injected mice [8] worked out at 20.500 ± 6.764 s.
In the case of `CCCC(C)(C)c1ccc2c(c1)OC(C)(C)[C@@H]1CC=C(C)C[C@@H]21` [JWH-133], the “β-arrestin recruitment at CB2 receptor” value in data set [10] is “strong β-arrestin recruitment”.

The record behind these values is publication PMC11745148, “Identification of Cannabidiolic and Cannabigerolic Acids as MTDL AChE, BuChE, and BACE‐1 Inhibitors Against Alzheimer's Disease by In Silico, In Vitro, and In Vivo Studies” (Phytotherapy Research, 2024).
